The values that follow come from patent US7385051B2, “Fluorescent N2,N3-etheno-purine (2′-deoxy) riboside derivatives and uses thereof” (Bar-llan University, priority 2005, dated 2008).

Where “and” joins values, the source holds several entries; their conditions need not be identical. Equal entries are not always repeated. Entries after “also recorded” stand apart in the source; their conditions may differ. Where two headings read alike, the source gives them in different places.

For data set [1] the following is noted: cited from earlier work.
The conditions of data set [2]: cited from earlier work. This is another data set of the same source.
The nature of data set [3]: Absorption spectra (UV-Visible) in aqueous solution at several pH values. The class given is physicochemical. Also noted: Absorption λmax: unit not given here. The protocol: Absorption spectra of compounds 4 and 23 were measured using a Varian array-1E UV-Visible spectrometer. Spectra were determined in dilute HCl or NaOH solutions in the pH range of 1.6-12.3 or at pH 7.0. The concentration of the samples of 4 in aqueous solutions and in organic solvents was of the order of 4.85×10^−5 M and of 23 in aqueous solutions was of the order of 5.04×10^−5 M.

Data set [4] can be described thus: Emission (fluorescence) spectra and quantum yield, quinine sulfate as reference. The class given is physicochemical. Also noted: Emission λmax: unit not given here. The conditions noted are these: for Maximum emission (λmax) in water / Quantum yield (φ) in water: excitation at 290 nm (4), 330 nm (17); for φ290: 290 nm. The protocol:
Emission spectra of compounds 4 and 23 were measured using an Aminco-Bowman series 2 Luminescence Spectrometer. Measurement conditions included: 740-750 V sensitivity, and a 4 or 2 nm slit in the emission spectra for aqueous or organic solutions, respectively. Emission spectra were corrected by the subtraction of the medium's emission spectrum. Spectra were determined in dilute HCl or NaOH solutions in the pH range of 1.6-12.3 or at pH 7. The concentration of the samples of 4 was of the order of 4.85×10^−5 M for aqueous and organic solutions and of 23 in the order of 5.04×10^−5 M for aqueous solutions. All organic solvents were freshly distilled prior to emission measurements. Measurements of the emission of the nucleoside analogue were conducted with subtraction of the solvent's emission. The quantum yield of each compound was calculated from the observed absorbance at 290 nm and the area of the fluorescence emission band. Quinine sulfate was used as reference compound assuming a quantum yield value of 0.55 (Andrew et al., 1988).

Data set [5] in a line: pKa determination by pH-titration monitored by fluorescence spectroscopy. The class given is physicochemical. From the text:
H-bonding pattern of N^2,N3-ε-A is dependent not only on tautomeric equilibria, but also on acid-base equilibria, namely, on protonation states. For analyzing the protonation state of N^2,N3-ε-A at physiological pH, we determined the pKa values of this system.
Specifically, we monitored the pH-titration of N^2,N3-E-A, 4, by fluorescence spectroscopy. 1×10^−5 M solutions of N^2,N3-ε-A-5′-mono-phosphate were titrated by HCl in the pH range of 1.5-7.0.

The next data set is described as follows: Fluorescence life-time. Type of data set: physicochemical. The protocol:
Fluorescent emission is a random process, and the excited molecules emit photons within a certain time, usually of the order of ns. For N^2,N3-ε-A, 4, and N^2,N3-ε-2′-deoxy-A, 23, fluorescence life times of 2.26 and 2.1 ns, respectively, were measured. These life times are relatively long and are therefore more convenient for the fluorescence measurements.

Data set [6] in a line: Stability under automated DNA synthesis conditions (TLC and MS). The class given is physicochemical. The protocol:
In order for a compound to be used in automated DNA synthesis, it has to be able to withstand the conditions of the different reactions in the synthesis. For example, it has to be stable in the treatment with 28% ammonia for two hours at 60° C.

In a further data set the target is T1, rat brain P2Y1-receptor (Rattus norvegicus, UniProt P49651).
T1 construct: expressed in transfected cells
T1 sequence (P49651 whole entry): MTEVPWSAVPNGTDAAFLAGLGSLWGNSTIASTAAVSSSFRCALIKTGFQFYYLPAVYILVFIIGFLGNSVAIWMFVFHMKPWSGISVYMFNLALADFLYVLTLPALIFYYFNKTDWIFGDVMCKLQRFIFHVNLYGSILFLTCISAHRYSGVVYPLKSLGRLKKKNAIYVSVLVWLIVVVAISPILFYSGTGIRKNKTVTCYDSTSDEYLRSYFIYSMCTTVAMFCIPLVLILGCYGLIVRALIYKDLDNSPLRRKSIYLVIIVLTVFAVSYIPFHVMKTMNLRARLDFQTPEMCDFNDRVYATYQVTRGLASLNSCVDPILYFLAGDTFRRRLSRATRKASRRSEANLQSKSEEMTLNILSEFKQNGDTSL
Nature of the data set: Agonist-induced Ca2+ release in HEK 293 cells stably transfected with P2Y1-receptor. The class given is cell-based. The following applies: HEK 293 cells with rat brain P2Y1-receptor. From the text: To examine the efficacy of analogues 30a,d in a functional assay, we tested them by the agonist-induced Ca^2+ release in HEK 293 cells stably transfected with rat brain P2Y1-receptor (FIG. 6) (Voehringer et al., 2000). […] However, a benzyl substitution at N^6 of 30a, as in analogue 30d, reduced the ligand's potency. […] EC50 value in the range of 10^−6 M.

Setting [7] is: in DMF (εd 37.6), 4.85 × 10^−5 M.
Setting [8] is: in DMSO (εd 47.6), 4.85 × 10^−5 M.
Setting [9] is: in Dioxane (εd 2.2), 4.85 × 10^−5 M.
[10] abbreviates: 1×10^−5 M solutions of the 5′-mono-phosphate titrated by HCl, pH 1.5-7.0, listed as N^2,N3-ε-A.

For the compound `OC[C@H]1O[C@@H](n2cnc3c2ncn2ccnc32)[C@H](O)[C@@H]1O` [Compound 1, N1,N^6-etheno-adenosine], in data set [1] (Secrist et al., 1972, Thomas and Leonard, 1976), the “Emission λmax” value is 415 nm.

Consider `O=c1nc2[nH]ccn2c2c1ncn2[C@@H]1O[C@H](CO)[C@@H](O)[C@H]1O` [Compound 3, N^2,N3-etheno-guanosine], for which the pKa (commonly the pH at which an ionisable group is half protonated) in data set [2] (literature (Glemarec et al., 1991 for the ε-G compounds)) is given as 2.11. For the same compound, the “pKa of N7” value in data set [2] (literature value as quoted) is listed as 5.20. Also, in data set [1] (excitation at 280 nm, Sattsangi et al., 1977), the Maximum emission was 410 nm. For the same compound, the “Emission maximum in water” value in data set [1] (in water, Kusmierek et al., 1987) is reported as 410 nm.

On to `Nc1nc2nccn2c2c1ncn2C1OC(CO)C(O)C1O` (centres unmarked) [Compound 4, N^2,N3-etheno-adenosine], for which the “Absorption bands in water” value in data set [3] (in water) was 234 nm and 274 nm. Besides, the “Absorption coefficient of the band at 234 nm” value in data set [3] (in water, 234 nm) was 12.6×10^3. Moreover, the “Absorption coefficient of the band at 274 nm” value in data set [3] (in water, 274 nm) is 3.3×10^3. Moreover, the “Absorption λmax” value in data set [3] (pH 1.6, 4.85 × 10^−5 M) is 224 and 268; in data set [3] (pH 7.0, 4.85 × 10^−5 M), 234 and 274; in data set [3] (pH 12.3, 4.85 × 10^−5 M) it was 234 and 276. For the same compound, the εd in data set [3] (pH 1.6, band at λmax 224) is reported as 6.17 × 10^3; in data set [3] (pH 1.6, band at λmax 268), 14.22 × 10^3; in data set [3] (pH 7.0, band at λmax 234), 12.58 × 10^3; in data set [3] (pH 7.0, band at λmax 274) it was 3.31 × 10^3; in data set [3] (pH 12.3, band at λmax 234), 13.89 × 10^3; in data set [3] (pH 12.3, band at λmax 276) it was 3.69 × 10^3. Further, the “Fluorescence at acidic pH” value in data set [4] (acidic pH) is given as “significant fluorescence”. The “Emission λmax” value in data set [4] (setting [7]) is listed as 448; in data set [4] (setting [8]) it was 458; in data set [4] (setting [9]) it was 434; in data set [4] (pH 1.6, 4.85 × 10−5 M), 396; in data set [4] (pH 7.0, 4.85 × 10−5 M) it was 420; in data set [4] (pH 12.3, 4.85 × 10−5 M) it was 420. The “φ (quantum yield)” value worked out at 0.082 in data set [4] (setting [7]); 0.085 in data set [4] (setting [8]); 0.042 in data set [4] (setting [9]); 0.021 in data set [4] (pH 1.6, 4.85 × 10−5 M); 0.032 in data set [4] (pH 7.0, 4.85 × 10−5 M); 0.031 in data set [4] (pH 12.3, 4.85 × 10−5 M). Besides, in data set [4], the “Maximum emission (λmax) in water” value stood at 420 nm. For the same compound, the “Quantum yield (φ) in water” value in data set [4] was determined as 0.03. In addition, the “pKa (first; assigned to the exocyclic amine)” value in data set [5] (setting [10]) is on record as 1.92; in data set [5] (pH 1.5), 1.92±0.08. Also, the figures for the “pKa (second; attributed to N8)” value in data set [5] (setting [10]) and in data set [5] (pH 1.5) were 3.16 and 3.16±0.24, respectively. Further, the entries for the “pKa (third; N7, most basic nitrogen)” value in data set [5] (setting [10]) and in data set [5] (pH 1.5) were 6.09 and 6.09±0.16, respectively. Also, the “Non-protonated fraction at physiological pH” value in data set [5] (pH 7.4) was determined as 96%. The compound further showed a Fluorescence life time in the data set “Fluorescence life-time” of 2.26 ns.

Take `O=c1c2ncn(C3O[C@H](CO)[C@@H](O)[C@H]3O)c2[nH]c2nccn12` (some centres unmarked) [Compound 5]: the “Fluorescence” value in data set [1] (Sattsangi et al., 1977, Kusmierek et al., 1992) is reported as “non-fluorescent”.

Regarding `CSc1nc2nccn2c2c1ncn2C1OC(CO)C(O)C1O` (centres unmarked) [Compound 17, N^2,N3-etheno-6-methylthio-purine riboside], the “Absorption bands in water” value in data set [3] (in water) was 227 nm and 247 nm and 307 nm and 345 nm. The “Absorption λmax” value in data set [3] (pH 1.6, 5.04 × 10^−5 M) is 227 and 243 and 301 and 331; in data set [3] (pH 7.0, 5.04 × 10^−5 M), 231 and 247 and 307 and 345; in data set [3] (pH 12.3, 5.04 × 10^−5 M), 233 and 307. Further, the εd is 16.52 × 10^3 in data set [3] (pH 1.6, band at λmax 227); 13.57 × 10^3 in data set [3] (pH 1.6, band at λmax 243); 7.39 × 10^3 in data set [3] (pH 1.6, band at λmax 301); 7.13 × 10^3 in data set [3] (pH 1.6, band at λmax 331); 16.09 × 10^3 in data set [3] (pH 7.0, band at λmax 231); 13.25 × 10^3 in data set [3] (pH 7.0, band at λmax 247). Also, the εd in data set [3] (pH 7.0, band at λmax 307) is on record as 7.07 × 10^3; in data set [3] (pH 7.0, band at λmax 345), 2.90 × 10^3; in data set [3] (pH 12.3, band at λmax 233), 19.29 × 10^3; in data set [3] (pH 12.3, band at λmax 307) it was 5.95 × 10^3. Besides, in data set [4], the “Maximum emission (λmax) in water” value was 520 nm and 518 nm. Further, the “Quantum yield (φ) in water” value in data set [4] is on record as 0.15. Moreover, the “Emission λmax” value is 492 and 516 in data set [4] (pH 1.6, 5.04 × 10^−5 M); 494 and 518 in data set [4] (pH 7.0, 5.04 × 10^−5 M); 494 and 520 in data set [4] (pH 12.3, 5.04 × 10^−5 M). Further, the “φ (quantum yield)” value stood at 0.037 in data set [4] (pH 1.6, 5.04 × 10^−5 M); 0.152 in data set [4] (pH 7.0, 5.04 × 10^−5 M); 0.067 in data set [4] (pH 12.3, 5.04 × 10^−5 M).

On to `Nc1nc2nccn2c2c1ncn2C1CC(O)C(CO)O1` (centres unmarked) [Compound 23], for which, in data set [3] (pH 7.0), the “ε (238 nm)” value is reported as 4.67×10^3 and the “ε (308 nm)” value is on record as 1.23×10^3. In addition, the φ290 in data set [4] (pH 7.0) is 0.085. Also, the Fluorescence life time in the data set “Fluorescence life-time” amounted to 2.1 ns. Besides, the “Stability against 2% dichloroacetic acid” value in data set [6] (2% dichloroacetic acid, 2 min) is “stable”. Also, the “Stability in 28% ammonia” value in data set [6] (28% ammonia, two hours at 60° C.) is “stable”.

As to `Nc1c2ncn(C3CC(O)C(CO)O3)c2nc2nccn12` (centres unmarked) [Compound 25, N1,N^2-etheno-2′-deoxy-adenosine], in data set [3] (pH 7.0), the “ε (238 nm)” value is reported as 4.12×10^3 and the “ε (308 nm)” value is on record as 1.02×10^3. In addition, in data set [4] (pH 7.0), the φ290 was 0.07.

Consider `O=P(O)(O)OP(=O)(O)OP(=O)(O)OCC1OC(n2cnc3c(NCc4ccccc4)nc4nccn4c32)C(O)C1O` (centres unmarked) [Compound 30d, N^6-Benzyl-N^2,N3-ethenoadenosine-5′-triphosphate], for which the concentration giving a half-maximal response (EC50) (commonly the concentration needed to bring the measured effect to its halfway point) on rat brain P2Y1-receptor (Ca^2+ release) was around 1000 nM. Moreover, the “Potency at P2Y1-R compared to ATP / 30a” value on rat brain P2Y1-receptor is listed as “reduction by one order of magnitude; also recorded: significant reduction of the affinities”.
